The test relates to MCF7 breast cancer cells. The test can be described thus: MCF7 breast cancer cell viability (CellTiter-Glo). It is filed as cell-based, human. The following applies: 72 hours. Here is the method:
Human breast adenocarcinoma (MCF7) cells were purchased from In Vitro Technologies (Victoria, Australia) and cultured according to manufacturer's recommendations using MCF7 growth media, Low glucose Dulbecco's Modified Eagle's medium (DMEM; Sigma-Aldrich, Australia) supplemented with 10% (v/v) foetal calf serum (Sigma-Aldrich) and 1% (v/v) Penicillin-Streptomycin (Sigma-Aldrich). Briefly, 1×10^6 MCF7 were seeded and grown in Corning® T75 flasks (Sigma-Aldrich) in an incubator at 37° C. under 5% CO2 conditions. At 80-90% confluency, MCF7 were washed with Dulbecco's Phosphate Buffered Saline (Sigma-Aldrich) for 30s at room temperature and followed by incubation with Trypsin-EDTA (Sigma-Aldrich) for 5 mins at 37° C. under 5% CO2 conditions. Trypsin solution was then neutralised with 1:1 volume of MCF7 growth media. The cell suspensions were then collected into Corning® 50 mL centrifuge tubes (Sigma-Aldrich) and centrifuged at 300×g for 10 mins at room temperature. The resulting supernatants were discarded and MCF7 pellets were resuspended with 5-10 mL of pre-warmed MCF7 growth media. Total viable cells were enumerated with Invitrogen™ Countess Cell Counter (Thermo Fisher Scientific, New South Wales, Australia) and 9×10^4 live MCF7 were seeded in triplicate into Corning® 96-well white polystyrene microplate (Sigma).
Dox, Dauno and Epi, were dissolved in sterile water to make a stock concentration of 20 mM, respectively, while Tz was dissolved in sterile PBS to a stock concentration of 100 μM. […] The concentrations were as follows 0 nM, 15.62 nM, 62.5 nM, 250 nM, 500 nM, 1 μM, 5 μM, and 10 μM. […] Vehicle controls were incubated with media supplemented with either sterile water or DMSO. […] This was repeated at 48 hours and 72 hours. […] Both FB23/2 and brequinar (MedChemExpress) were dissolved in dimethyl sulfoxide (DMSO; Sigma-Aldrich) to make a stock concentration of 40 mM and 20 mM respectively.

In the case of `C(=NNC1=NCCN1)c1c2ccccc2c(C=NNC2=NCCN2)c2ccccc12` [bisantrene, 9,10-anthracenedicarboxaldehyde bis [(4,5-dihydro-1H-imidazol-2-yl)hydrazone]], the “toxicity to MCF7 breast cancer cells” value (0-10 μM bisantrene alone, FIG. 3) is “concentration-dependent toxicity”. In addition, for the setting “0-10 μM bisantrene with 1 μM carfilzomib, FIG. 3”, the “interference with toxicity of carfilzomib to MCF7 cells” value is recorded as “did not interfere with the toxicity”. The “combined toxicity of bisantrene with doxorubicin or carfilzomib to MCF7 cells” value (0-10 μM bisantrene with 1 μM doxorubicin or 1 μM carfilzomib) is on record as “additive toxicity”. The “interference with toxicity of doxorubicin to MCF7 cells” value (0-10 μM bisantrene with 1 μM doxorubicin, FIG. 3) is recorded as “did not interfere with the toxicity”.
